Experimental findings from patent publication US20100278733A1, “COMPOSITION FOR DIAGNOSIS OF AMYLOID-RELATED DISEASE” (priority 2007, published 2010) are described below.

Test [1] deals with T1, Aβ(1-42) aggregate (Homo sapiens, UniProt P05067).
T1 construct: Amyloid β protein (Human, 1-42) [TFA form] was purchased from Peptide Institute, Inc; purchased Peptide Institute, Inc
The test can be described thus: In-vitro binding inhibition experiment using Aβ(1-42) aggregate (Example 1). The following applies: compound numbers of Example 1. Here is the method: (§1) Amyloid β protein (Human, 1-42) [TFA form] was purchased from Peptide Institute, Inc., and special grade reagents were used as other reagents. ^1H-NMR was measured using Varian Gemini 300 and tetramethylsilane as an internal standard substance.
The Aβ(1-42) aggregate was dissolved in a buffer containing 10 mM sodium phosphate and 1 mM EDTA (pH 7.4) at a concentration of 0.5 mg/mL, and the mixture was incubated at 37° C. for 36 to 42 h. The binding inhibition experiment was performed using 12×75-mm borosilicate glass tubes. 850 μL of 10% ethanol solution, 50 μL of an Aβ-binding substance ([^125I]4-dimethylamino-4′ iodochalcone) (10% aqueous ethanol), 50 μL (57 nM) of Aβ(1-42) aggregate solution, and 50 μL of 10% aqueous ethanol each containing Compounds 1 and 4 at various concentrations (0.003 to 781 nM) were mixed, and the mixture was allowed to stand at room temperature for 3 h. Further, nonspecific binding was determined using 4-dimethylamino-4′-iodochalcone (400 nM), a nonradioactive compound. Aβ aggregate-bound chalcone derivatives and nonbound chalcone derivatives were separated with a Brandel M-24R cell harvester using a Whatman GF/B filter. The radioactivities of substances remaining on the filter after filtration were measured with a γ counter. […]

The target of test [2] is T1, Aβ(1-42) aggregate. The test can be described thus: In-vitro binding inhibition experiment using Aβ(1-42) aggregate (Reference Example 2). The following applies: ligand [^125I]4-dimethylamino-4′-iodochalcone; compound numbers of Reference Example 2; read-out: Inhibition constant (Ki, nM) (mean ± SE). The procedure:
as §1
The Aβ(1-42) aggregate was dissolved in a buffer containing 10 mM sodium phosphate and 1 mM EDTA (pH 7.4) at a concentration of 0.5 mg/mL, and the mixture was incubated at 37° C. for 36 to 42 h. The binding inhibition experiment was performed using 12×75-mm borosilicate glass tubes. 850 μL of 10% ethanol solution, 50 μL of [^125I]4-dimethylamino-4′-iodochalcone (in 10% aqueous ethanol), 50 μL (29 nM) of an Aβ(1-42) aggregate solution, and 50 μL of a solution of fluorine-containing chalcone derivatives in 10% aqueous ethanol prepared at various concentrations were mixed, and the mixture was allowed to stand at room temperature for 3 h. Further, nonspecific binding was calculated using 4-dimethylamino-4′iodochalcone (400 nM), a nonradioactive compound. Aβ aggregate-bound chalcone derivatives and nonbound chalcone derivatives were separated with a Brandel M-24R cell harvester using Whatman GF/B filters. Radioactivities of substances remaining on the filter were measured with a γ counter. The 50% inhibitory concentrations were calculated using Graph Pad Prism (graph pad software), and inhibition constants (Ki values) were calculated by Cheng-Prusoff equation, Ki=IC50/(1+[L]/Kd). In this equation, the concentration of [^125I]4-dimethylamino-4′-iodochalcone used in the experiment was used for [L], and the dissociation constant of [^125I]4-dimethylamino-4′-iodochalcone against the Aβ(1-42) aggregate was used for Kd.

The target of test [3] is T1, Aβ(1-42) aggregate. The test can be described thus: Examination of binding site by binding inhibition experiment using Aβ(1-42) aggregate (Example 2). The settings on record: in words, FIG. 10. Here is the method:
Aβ(1-42) was dissolved in 10 mM phosphate buffer containing 1 mM EDTA (pH 7.4) at a concentration of 0.25 mg/mL, and the mixture was incubated at 37° C. for 42 h to prepare an Aβ(1-42) aggregate.
[…] of 10% EtOH solution, […] of [^125I]CL-NMe2 solution, […] of a solution of congo red, thioflavine T, or compound 14 at various concentrations (0 to 20 mM) were mixed, […] of an Aβ(1-42) aggregate solution was finally added, and the mixture was allowed to stand at room temperature for 3 h. Aβ(1-42) aggregate-bound compounds and nonbound compounds were separated with a Brandel M-24R cell harvester using a Whatman GF/B filter. Radioactivities remaining on the filter after filtration were measured with a γ-counter, and inhibition curves were created using Graph Pad Prism 4.0 to calculate inhibition constants.

Each structure is given as a SMILES string.

T1 sequence (P05067 672-713 limits assumed): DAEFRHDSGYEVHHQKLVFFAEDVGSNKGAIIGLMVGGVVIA

Take `CN(C)c1ccc(/C=C/C(=O)c2ccc(I)s2)cc1` [Compound 1 in Example 1, (E)-3-(4-(dimethylamino)phenyl)-1-(5-iodothiophen-2-yl)prop-2-en-1-one]: the “binding property to the amyloid aggregate” value in test [1] (in words) is “very strong binding property”. Also, the Ki in test [1] (ligand [^125I]4-dimethylamino-4′-iodochalcone, mean and standard deviation of three experiments, read-out: Inhibition constants (Ki) for binding to Aβ(1-42) aggregate) was 0.0052 ± 0.0007 µM. As to `CNc1ccc(/C=C/C(=O)c2ccc(OCCOCCF)cc2)cc1` [Compound 17 in Reference Example 2, (E)-1-(4-(2-(2-fluoroethoxy)ethoxy)phenyl)-3-(4-(methylamino)phenyl)prop-2-en-1-one], in test [2], the inhibition constant (Ki) was determined as 187 ± 3 nM. Turning to `Nc1c(/N=N/c2ccc(-c3ccc(/N=N/c4cc(S(=O)(=O)O)c5ccccc5c4N)cc3)cc2)cc(S(=O)(=O)O)c2ccccc12` [congo red], the “inhibition of binding of [^125I]CL-NMe2 to the Aβ(1-42) aggregate” value in test [3] is “did not inhibit binding of [^125I]CL-NMe2 to the Aβ(1-42) aggregate to a large extent”. On the same count and under the same terms, to `Cc1ccc2c(c1)sc(-c1ccc(N(C)C)cc1)[n+]2C.[Cl-]` [thioflavine T] belongs “did not inhibit binding of [^125I]CL-NMe2 to the Aβ(1-42) aggregate to a large extent”.
